Results on ten molecules are retold here after US8067435B2, “Nitrogen-containing heterocyclic compounds, their preparation and their use as antibacterial drugs” (AstraZeneca AB, priority 2008, dated 2011).

Each structure is given as a SMILES string. ≈ marks a conversion by molar mass, not a printed value.

The test system of one experiment is Pseudomonas aeruginosa (1771 Strain of the wild type). Nature of the experiment: Activity in vitro, method of dilutions in a liquid medium (MIC). Format: cell-based. Conditions: Pseudomonas aeruginosa 1771 wild type; liquid medium dilution; 24 hrs incubation at 37° C. The method, then:
Activity in vitro, method of dilutions in a liquid medium: A series of tubes is prepared in which the same amount of sterile nutritive medium is distributed, increasing amounts of the product to be studied are distributed in each tube, and each tube is then sown with a bacterial strain. After incubation for 24 hrs in the oven at 37° C., inhibition of growth is appreciated by trans-illumination, which allows determination of the minimum inhibitory concentrations (MICs) expressed in μg/ml.
Thus tests are carried out with the products of Examples 1 to 8 in comparison with products of Examples 7, 9, 11 and 45 of application WO 04/052891. […] The activity difference on Pseudomonas aeruginosa between the products of the invention and the closest products from the prior art is located according to the products in a range from 16 to more than 500.
Activity on Pseudomonas aeruginosa (1771 Strain of the wild type)
Take `NCCn1cc2c(n1)[C@@H](CN)N1C[C@H]2N(OS(=O)(=O)O)C1=O.O=C([O-])C(F)(F)F.[Na+]` (relative stereo) [Ex 5, Sodium trifluoroacetate salt of trans 8-(aminomethyl)-2-(2-amino-ethyl)-4,8-dihydro-5-(sulfooxy)-4,7-methano-7H-pyrazolo[3,4-e][1,3]diazepin-6(5H)-one]: the “MIC (μg/mL) 24 h (P, aerug, 1771)” value was 0.25 µg/mL.

Take `NC[C@@H]1c2nn(C(N)=O)cc2[C@H]2CN1C(=O)N2OS(=O)(=O)O.O=C([O-])C(F)(F)F.[Na+]` (relative stereo) [Ex 1, Sodium trifluoroacetate salt of trans 8-(aminomethyl)-2-carbamoyle-4,8-dihydro-5-(sulfooxy)-4,7-methano-7H-pyrazolo[3,4-e][1,3]diazepin-6(5H)-one]: the “MIC (μg/mL) 24 h (P, aerug, 1771)” value worked out at 0.25 µg/mL.

With `CNC(=O)n1cc2c(n1)[C@@H](CN)N1C[C@H]2N(OS(=O)(=O)O)C1=O.O=C([O-])C(F)(F)F.[Na+]` (relative stereo) [Ex 3, Sodium trifluoroacetate salt of trans 8-(aminomethyl)-2-methylcarbamoyl-4,8-dihydro-5-(sulfooxy)-4,7-methano-7H-pyrazolo[3,4-e][1,3]diazepin-6(5H)-one], the “MIC (μg/mL) 24 h (P, aerug, 1771)” value came to 2 µg/mL.

On to `NC[C@@H]1c2nn(CC(=O)O)cc2[C@H]2CN1C(=O)N2OS(=O)(=O)O.O=C([O-])C(F)(F)F.[Na+]` (relative stereo) [Ex 7, Sodium trifluoroacetate salt of trans-8-(aminomethyl)-5,6-dihydro-6-oxo-5-(sulfooxy)-4H-4,7-methanopyrazolo[3,4-e][1,3]diazepin-2(8H)-acetic acid], for which the “MIC (μg/mL) 24 h (P, aerug, 1771)” value stood at 4 µg/mL.

Take `NC[C@@H]1c2nn(-c3ccccn3)cc2[C@H]2CN1C(=O)N2OS(=O)(=O)O.O=C([O-])C(F)(F)F.[Na+]` (relative stereo) [Ex 6, Sodium trifluoroacetate salt of trans 8-(aminomethyl)-2-(2-pyridinyl)-4,8-dihydro-5-(sulfooxy)-4,7-methano-7H-pyrazolo[3,4-e][1,3]diazepin-6(5H)-one]: the “MIC (μg/mL) 24 h (P, aerug, 1771)” value turned out to be 8 µg/mL.

`NC[C@@H]1c2nn(CC(N)=O)cc2[C@H]2CN1C(=O)N2OS(=O)(=O)O.O=C([O-])C(F)(F)F.[Na+]` (relative stereo) [Ex 8, Sodium trifluoroacetate salt of trans-8-(aminomethyl)-5,6-dihydro-6-oxo-5-(sulfooxy)-4H-4,7-methanopyrazolo[3,4-e][1,3]diazepin-2(8H)-acetamide]: the “MIC (μg/mL) 24 h (P, aerug, 1771)” value was determined as 0.5 µg/mL.

With `NCCn1ncc2c1[C@@H](CN)N1C[C@H]2N(OS(=O)(=O)O)C1=O.O=C([O-])C(F)(F)F.[Na+]` (relative stereo) [Ex 4, Sodium trifluoroacetate salt of trans 8-(aminomethyl)-1-(2-amino-ethyl)-4,8-dihydro-5-(sulfooxy)-4,7-methano-7H-pyrazolo[3,4-e][1,3]diazepin-6(5H)-one], the “MIC (μg/mL) 24 h (P, aerug, 1771)” value is 0.25 µg/mL.

For the molecule `CN(C)C(=O)n1cc2c(n1)[C@@H](CN)N1C[C@H]2N(OS(=O)(=O)O)C1=O.O=C([O-])C(F)(F)F.[Na+]` (relative stereo) [Ex 2, Sodium trifluoroacetate salt of trans 8-(aminomethyl)-2-dimethylcarbamoyle-4,8-dihydro-5-(sulfooxy)-4,7-methano-7H-pyrazolo[3,4-e][1,3]diazepin-6(5H)-one], the “MIC (μg/mL) 24 h (P, aerug, 1771)” value stood at 2 µg/mL.

The same experiment, now with this note: Pseudomonas aeruginosa 1771 wild type; liquid medium dilution; 24 hrs incubation at 37° C.; read-out: MIC (μg/mL) 24 h (P, aerug, 1771).
With `C[C@@H](O)[C@H]1C(=O)N2C(C(=O)O)=C(SCCN=CN)C[C@H]12` [IMP, Imipenem, reference compound], the MIC was determined as 1 µg/mL (≈ 3.34 µM).

Turning to `CC(C)(O/N=C(\C(=O)N[C@@H]1C(=O)N2C(C(=O)[O-])=C(C[n+]3ccccc3)CS[C@H]12)c1csc(N)n1)C(=O)O` [CAZ, Ceftazidime, reference compound], the MIC was found to be 1 µg/mL (≈ 1.83 µM).
